What was measured:
[1] = Metabolic stability in liver microsomes (MLM); assay type: in vitro ADME, mice; settings: 0.25 mg/mL protein
In short: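 Mouse liver microsomes (0.25 mg/mL protein) in 50 mM potassium phosphate pH 7.4 at 37 °C with 1 µM compound, 1 mM NADPH, 0.1% DMSO; sampled 0–60 min in duplicate. LC-MS/MS parent depletion gives half-life; CL'int in mL/min/kg scaled with 45 mg protein/g liver, 90 g liver.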

42D^ENZR cells = experiment: Cell proliferation, BRN2 expressing 42D cells (crystal violet); assay type: cell-based; settings: about 72 hours
In short: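 42D^ENZR (~7000/well) and 16D^CRPC (~5000/well) cells plated, compound added next day from 3× media stocks. After ~72 hours, cells fixed with glutaraldehyde, stained with crystal violet, dye eluted in Sorensen solution; absorbance read at 590 nm.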

16D^CRPC cells = experiment: Cell proliferation, 16D cells that do not express BRN2 (crystal violet); assay type: cell-based; settings: result in words
Procedure: Step 3: Cell Proliferation
Plate 42DE^NZR (˜7000 cells per well) and 16D^CRPC (˜5000 cells per well) cells in 96 well plate with a volume of 100 μL per well. • 2. Next day 1 mL aliquots of media are combined with 3× the desired concentration of compounds. The aliquots are vortexed and 50 μL of each 3× concentration is added to the 100 μL of media in each well to give the ix desired concentration.
The following are the desired concentrations:
0, 10 nM, 100 nM, 500 nM, 1 μM, 2.5 μM, 5 μM, 10 μM, 15 μM, 20 μM, 30 μM. • 3. Approximately 72 hours later, 17 μL of 10% Glutaraldehyde is added to each well and plates are placed on a shaker for 20-30 minutes. • 4. Media is washed off the fixed cells by slow submersion in a container of water. Then the water is removed by tapping the plate upside down. • 5. 75 μL of Crystal Violet™ solution is added into the 96 well plates and placed on a shaker for ˜30 minutes. • 6. Media is washed off the fixed cells by repeated slow submersion in a container of water and the plates are allowed to dry over-night. • 7. Next day, 75 μL of Sorensen Solution is accurately pipetted into each well. The plates placed on a shaker for ˜30 minutes. • 8. Absorbance is measured in the plate at 590 nm. Compounds that Show Specificity Towards 42DE^NZR Cells Vs 16D^CRPC Cells Progress to Step 4.
In TABLES 1 and 2, in columns Met Stab % and T½, refers to compound's stability in MLM. There is a distinction in TABLES 1 and 2 difference between “Active” and “Specific” or “Specificity”. Some of the compounds were first tested to quantify inhibition of BRN2 transcriptional activity in a luciferase assay to determine BRN2 inhibition at 10 μM and 30 μM concentrations. […] Generally, compounds having low inhibitory activity were compounds with less than about ˜30% or activation at either concentration (i.e. 10 μM or 30 μM). Furthermore, some compounds that lacked specificity could also show off-target effects.

Structure (SMILES): O=C1/C(=N\Nc2nc3ccccc3s2)Cc2ccccc21 [7-62, (Z)-2-(2-(benzo[d]thiazol-2-yl)hydrazineylidene)-2,3-dihydro-1H-inden-1-one]
- half-life at 1 μM ([1]; mouse, liver microsomes, pH 7.4, 1 μM compound, read-out: T1/2 in mins (MLM)): 40 min
- Met Stab % (60 mins) MLM ([1]; percent remaining at 60 min, 1 μM compound, 1 mM NADPH): 31%
- Growth Specificity (42D^ENZR cells; 42D (express BRN2) versus 16D (no BRN2) cells, result in words): Specific to 42D
- IC50 (42D^ENZR cells; 42D cells, proliferation, read-out: 42D IC50): 1000 nM
- effect on 16D (16D^CRPC cells): no effect on 16D

Reference: patent US20250205204A1, “Transcription Factor Brn2 Inhibitory Compounds for Use as Therapeutics” (The University of British Columbia, priority 2021, published 2025)
